Test results taken from patent US6914045B2, “Glycopeptide antibiotics” (Wyeth Holdings Corporation, priority 2001, dated 2005).
≈ marks a conversion by molar mass, not a printed value.

Experiments:
[1] = system: Streptococcus pneumoniae (GC 1894); assay: acute lethal infection in mice; assay type: in vivo; details: female CD-1 mice, intraperitoneal challenge, intravenous 30 min. after infection, 7 day survival
How it was run: (§1)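 Mice (female CD-1, 20+/−2 gm) receive bacteria ip in broth or hog gastric mucin, then test agent iv after 30 min. Median effective dose is calculated from 7 day survival pooled across 3 tests.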

[2] = system: Staphylococcus aureus-SMITH (GC 4543); assay: acute lethal infection in mice; assay type: in vivo; details: acute lethal infection, female CD-1 mice, intraperitoneal challenge, intravenous 30 min. after infection, 7 day survival
How it was run: as §1

[3] = clinical pathology (serum clinical chemistry) in mice; assay type: in vivo; details: CD-1 mice, 20 mg/kg intravenously daily for 9 days, sera day 10
Method: 20-day-old CD-1 mice were divided into a vehicle control group (5 mice) and a treatment group (5 mice). Samples of glycopeptide antibiotics were administered at 20 mg/kg intravenously daily for 9 days.

Enterococcus sp. = assay: in vitro antibacterial evaluation, MIC by broth dilution; assay type: cell-based; details: broth dilution, 18 hours at 35° C.
How it was run: (§2)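 Read-out: the lowest concentration at which the test strain fails to grow. Serial dilutions (64-0.06 μg/mL) in Muller-Hinton II […], 5×10^5 CFU/mL inoculum, NCCLS M7-A2 procedure.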

Escherichia coli = assay: as above; assay type: cell-based; details: 18 hours at 35° C.
How it was run: as §2

Staphylococcus sp. = assay: as above; assay type: cell-based; details: broth dilution, 18 hours at 35° C.
How it was run: as §2

Streptococcus sp. = assay: as above; assay type: cell-based; details: broth dilution, 18 hours at 35° C.
How it was run: as §2

[4] = anatomic pathology (histopathology of heart and kidney) in mice; assay type: in vivo; details: CD-1 mice, 20 mg/kg intravenously daily for 9 days, necropsy day 10, microscopic histopathology
Method: Samples of tissues from necropsied mice were formalin-fixed, paraffin-embedded, sectioned, stained with hematoxylin and eosin, and examined microscopically. Histopathologic findings were recorded. These findings were subjectively graded on a scale corresponding to slight, mild, moderate, marked and severe as compared to untreated controls.

In the case of `CC(c1ccccc1)C1NC(=O)CNC(=O)C(CO)NC(=O)C(C(O)C2CNC(=N)N2C2OC(CO)C(O)C(O)C2O)NC(=O)C(C(O)C2CNC(=N)N2)NC(=O)C(Cc2ccc(OC3OC(CO)C(OC4OC5COC(c6ccccc6)OC5C(O)C4O)C(O)C3O)cc2)NC1=O` (centres unmarked) [Example 104, Cyclo[glycyl-3-methylphenylalanyl-O-[4-O-(4,6-O-benzylidenehexopyranosyl)hexopyranosyl]-tyrosyl-3-(2-iminoimidazolidin-4-yl)seryl-3-(3-hexopyranosyl-2-iminoimidazolidin-4-yl)-serylseryl]], the median effective dose (ED50), Streptococcus pneumoniae (GC 1894) [1] is reported as 0.22 mg/kg, the median effective dose (ED50), Staphylococcus aureus-SMITH (GC 4543) [2] is reported as 0.19 mg/kg and the “Clinical Chemistry (Day 10) % of Control, AST” value [3] is reported as “+87%”. The “Clinical Chemistry (Day 10) % of Control, BUN” value [3] was “+203%”, the “Clinical Chemistry (Day 10) % of Control, Creatinine” value [3] was “+65%” and the “MIC Enterococcus avium (GC 4558)” value (Enterococcus sp.; Enterococcus avium (GC 4558)) was 2 to 4 mg/L. The “MIC Enterococcus faecalis (ATCC 29212)” value (Enterococcus sp.; Enterococcus faecalis (ATCC 29212)) was 2 to 4 mg/L, the “MIC Enterococcus faecalis (GC 2242)” value (Enterococcus sp.; Enterococcus faecalis (GC 2242)) was 2 mg/L (≈ 1.45 µM) and the “MIC Enterococcus faecalis (GC 2691)” value (Enterococcus sp.; Enterococcus faecalis (GC 2691)) was 4 mg/L (≈ 2.89 µM). The “MIC Enterococcus faecalis (GC 3059)” value (Enterococcus sp.; Enterococcus faecalis (GC 3059)) was 4 mg/L (≈ 2.89 µM), the “MIC Enterococcus faecalis (GC 4552)” value (Enterococcus sp.; Enterococcus faecalis (GC 4552)) was 4 mg/L (≈ 2.89 µM) and the “MIC Enterococcus faecalis (GC 4553)” value (Enterococcus sp.; Enterococcus faecalis (GC 4553)) was 4 mg/L (≈ 2.89 µM). For the same compound, the “MIC Enterococcus faecalis (GC 4554)” value (Enterococcus sp.; Enterococcus faecalis (GC 4554)) was 4 mg/L (≈ 2.89 µM), the “MIC Enterococcus faecalis (GC 6189)” value (Enterococcus sp.; Enterococcus faecalis (GC 6189)) was 2 mg/L (≈ 1.45 µM) and the “MIC Enterococcus faecium (GC 2243)” value (Enterococcus sp.; Enterococcus faecium (GC 2243)) was 2 mg/L (≈ 1.45 µM). For the same compound, the “MIC Enterococcus faecium (GC 4556)” value (Enterococcus sp.; Enterococcus faecium (GC 4556)) was 2 to 4 mg/L, the “MIC Enterococcus faecium (GC 4557)” value (Enterococcus sp.; Enterococcus faecium (GC 4557)) was 2 mg/L (≈ 1.45 µM) and the “MIC Enterococcus faecalis (ATCC 29212)” value (Enterococcus sp.; strain ATCC 29212) was 2 to 4 mg/L. The “MIC Enterococcus faecalis (GC 2242)” value (Enterococcus sp.; strain GC 2242) was 2 mg/L (≈ 1.45 µM), the “MIC Enterococcus faecium (GC 2243)” value (Enterococcus sp.; strain GC 2243) was 2 mg/L (≈ 1.45 µM) and the “MIC Enterococcus faecalis (GC 2691)” value (Enterococcus sp.; strain GC 2691) was 4 mg/L (≈ 2.89 µM). The “MIC Enterococcus faecalis (GC 3059)” value (Enterococcus sp.; strain GC 3059) was 4 mg/L (≈ 2.89 µM), the “MIC Enterococcus faecalis (GC 4552)” value (Enterococcus sp.; strain GC 4552) was 4 mg/L (≈ 2.89 µM) and the “MIC Enterococcus faecalis (GC 4553)” value (Enterococcus sp.; strain GC 4553) was 4 mg/L (≈ 2.89 µM). The “MIC Enterococcus faecalis (GC 4554)” value (Enterococcus sp.; strain GC 4554) was 4 mg/L (≈ 2.89 µM), the “MIC Enterococcus faecium (GC 4556)” value (Enterococcus sp.; strain GC 4556) was 2 to 4 mg/L and the “MIC Enterococcus faecium (GC 4557)” value (Enterococcus sp.; strain GC 4557) was 2 mg/L (≈ 1.45 µM). The “MIC Enterococcus avium (GC 4558)” value (Enterococcus sp.; strain GC 4558) was 2 to 4 mg/L, the “MIC Enterococcus faecalis (GC 6189)” value (Enterococcus sp.; strain GC 6189) was 2 mg/L (≈ 1.45 µM) and the “MIC Escherichia coli (ATCC 25922)” value (Escherichia coli; strain ATCC 25922) was 32 to 64 mg/L. For the same compound, the “MIC Escherichia coli (GC 4559)” value (Escherichia coli; strain GC 4559) was 16 to 32 mg/L, the “MIC Escherichia coli (GC 4560)” value (Escherichia coli; strain GC 4560) was 0.5 to 1 mg/L and the “MIC Coagulase Negative Staphylococcus (GC 4547)” value (Staphylococcus sp.) was 1 mg/L (≈ 0.723 µM). The “MIC Coagulase Negative Staphylococcus (GC 4548)” value (Staphylococcus sp.) was 0.5 to 1 mg/L, the “MIC Coagulase Negative Staphylococcus (GC 4549)” value (Staphylococcus sp.) was 0.5 mg/L (≈ 0.361 µM) and the “MIC Coagulase Negative Staphylococcus (GC 4551)” value (Staphylococcus sp.) was 1 mg/L (≈ 0.723 µM). The “MIC Coagulase Negative Staphylococcus (GC 6257)” value (Staphylococcus sp.) was 0.5 mg/L (≈ 0.361 µM), the “MIC Staphylococcus aureus (ATCC 29213)” value (Staphylococcus sp.) was 1 mg/L (≈ 0.723 µM) and the “MIC Staphylococcus aureus (GC 1131)” value (Staphylococcus sp.) was 2 mg/L (≈ 1.45 µM). For the same compound, the “MIC Staphylococcus aureus (GC 3051)” value (Staphylococcus sp.) was 1 mg/L (≈ 0.723 µM), the “MIC Staphylococcus aureus (GC 3053)” value (Staphylococcus sp.) was 1 mg/L (≈ 0.723 µM) and the “MIC Staphylococcus aureus (GC 4541)” value (Staphylococcus sp.) was 1 mg/L (≈ 0.723 µM). For the same compound, the “MIC Staphylococcus aureus (GC 4542)” value (Staphylococcus sp.) was 0.5 mg/L (≈ 0.361 µM), the “MIC Staphylococcus aureus (GC 4544)” value (Staphylococcus sp.) was 1 mg/L (≈ 0.723 µM) and the “MIC Staphylococcus aureus (GC 4545)” value (Staphylococcus sp.) was 0.5 to 1 mg/L. For the same compound, the “MIC Staphylococcus aureus-SMITH (GC 4543)” value (Staphylococcus sp.) was 0.5 to 1 mg/L, the “MIC Staphylococcus haemolyticus (GC 4546)” value (Staphylococcus sp.) was 0.5 mg/L (≈ 0.361 µM) and the “MIC Staphylococcus haemolyticus (GC 4546)” value (Staphylococcus sp.; strain GC 4546) was 0.5 mg/L (≈ 0.361 µM). The “MIC Coagulase Negative Staphylococcus (GC 4547)” value (Staphylococcus sp.; strain GC 4547) was 1 mg/L (≈ 0.723 µM), the “MIC Coagulase Negative Staphylococcus (GC 4548)” value (Staphylococcus sp.; strain GC 4548) was 0.5 to 1 mg/L and the “MIC Coagulase Negative Staphylococcus (GC 4549)” value (Staphylococcus sp.; strain GC 4549) was 0.5 mg/L (≈ 0.361 µM). For the same compound, the “MIC Coagulase Negative Staphylococcus (GC 4551)” value (Staphylococcus sp.; strain GC 4551) was 1 mg/L (≈ 0.723 µM), the “MIC Coagulase Negative Staphylococcus (GC 6257)” value (Staphylococcus sp.; strain GC 6257) was 0.5 mg/L (≈ 0.361 µM) and the “MIC Staphylococcus aureus-SMITH (GC 4543)” value (Staphylococcus sp.; strain SMITH GC 4543) was 0.5 to 1 mg/L. For the same compound, the “MIC Staphylococcus aureus (ATCC 29213)” value (Staphylococcus sp.; strain ATCC 29213) was 1 mg/L (≈ 0.723 µM), the “MIC Staphylococcus aureus (GC 1131)” value (Staphylococcus sp.; strain GC 1131) was 2 mg/L (≈ 1.45 µM) and the “MIC Staphylococcus aureus (GC 3051)” value (Staphylococcus sp.; strain GC 3051) was 1 mg/L (≈ 0.723 µM). For the same compound, the “MIC Staphylococcus aureus (GC 3053)” value (Staphylococcus sp.; strain GC 3053) was 1 mg/L (≈ 0.723 µM), the “MIC Staphylococcus aureus (GC 4541)” value (Staphylococcus sp.; strain GC 4541) was 1 mg/L (≈ 0.723 µM) and the “MIC Staphylococcus aureus (GC 4542)” value (Staphylococcus sp.; strain GC 4542) was 0.5 mg/L (≈ 0.361 µM). The “MIC Staphylococcus aureus (GC 4544)” value (Staphylococcus sp.; strain GC 4544) was 1 mg/L (≈ 0.723 µM), the “MIC Staphylococcus aureus (GC 4545)” value (Staphylococcus sp.; strain GC 4545) was 0.5 to 1 mg/L and the “MIC Streptococcus agalactiae (GC 4564)” value (Streptococcus sp.; Streptococcus agalactiae (GC 4564)) was under 0.12 to 0.25 mg/L. The “MIC Streptococcus pneumoniae (ATCC 6301)” value (Streptococcus sp.; Streptococcus pneumoniae (ATCC 6301)) was under 0.12 mg/L, the “MIC Streptococcus pneumoniae (GC 1894)” value (Streptococcus sp.; Streptococcus pneumoniae (GC 1894)) was under 0.12 mg/L and the “MIC Streptococcus pneumoniae (GC 4565)” value (Streptococcus sp.; Streptococcus pneumoniae (GC 4565)) was under 0.12 mg/L. The “MIC Streptococcus pyogenes (GC 4563)” value (Streptococcus sp.; Streptococcus pyogenes (GC 4563)) was under 0.12 mg/L, the “MIC Streptococcus pneumoniae (ATCC 6301)” value (Streptococcus sp.; strain ATCC 6301) was under 0.12 mg/L and the “MIC Streptococcus pneumoniae (GC 1894)” value (Streptococcus sp.; strain GC 1894) was under 0.12 mg/L. For the same compound, the “MIC Streptococcus pyogenes (GC 4563)” value (Streptococcus sp.; strain GC 4563) was under 0.12 mg/L, the “MIC Streptococcus agalactiae (GC 4564)” value (Streptococcus sp.; strain GC 4564) was under 0.12 to 0.25 mg/L and the “MIC Streptococcus pneumoniae (GC 4565)” value (Streptococcus sp.; strain GC 4565) was under 0.12 mg/L. The “Anatomical Pathology (Day 10), Heart” value [4] was “+++” and the “Anatomical Pathology (Day 10), Kidney” value [4] was “+++”.
